Where only a bound is given, the exact number is not on record here.

This experiment deals with RS4;11 cells. Nature of the experiment: RS4;11 cell proliferation assay (CellTiter-Glo). In kind it is cell-based. As to conditions: Homo sapiens, 48 h compound treatment, read-out: RS4;11 (nM) CTG IC50. The method, then: Cell proliferation was measured using the CellTiter-Glo@ Luminescent Cell Viability Assay. The assay involved the addition of a single reagent (CellTiter-Glo® Reagent) directly to cells cultured in serum-supplemented medium. RS4;11 (ATC, CRL-1873) cells were cultured according to ATCC recommendations and were seeded at 50,000 cells per well. NCI-H1963 cells (ATCC CRL-5982) were cultured according to ATCC recommendations and seeded at 12,000 cells per well.
Each compound evaluated was prepared as a DMSO stock solution (10 mM). Compounds were tested in duplicate on each plate, with a 10-point serial dilution curve (1:3 dilution). Compound treatment (1.0 μL) was added from the compound dilution plate to the cell plate. The highest compound concentration was 10 μM (final), with a 0.1% final DMSO concentration. Plates were then incubated at 37° C., 5% CO2. After 48 h of compound treatment for RS4;11 or 72 h for NCI-H1963, cell plates were equilibrated at rt for approximately 30 mins. An equi-volume amount of CellTiter-Glo@ Reagent (40 μL) was added to each well. Plates were mixed for 2 mins on an orbital shaker to induce cell lysis and then incubated at RT for 10 mins to stabilize the luminescent signal. Luminescence was recorded using a Envision plate reader according to CellTiter-Glo protocol. IC50 of each compound was calculated using GraphPad Prism by nonlinear regression analysis.
On the technique in general: In ATP-based viability assays light output follows the ATP content of the culture.

With `CC1(C)CCC(CN2CCN(c3ccc(C(=O)NS(=O)(=O)c4ccc(N[C@H](CCN5CCOCC5)CSc5ccccc5)c(S(=O)(=O)C(F)(F)F)c4)cc3)CC2)=C(C23CC(C(F)(F)F)(C2)C3)C1` [Example 54, (R)-4-(4-((4,4-dimethyl-2-(3-(trifluoromethyl)bicyclo[1.1.1]pentan-1-yl)cyclohex-1-en-1-yl)methyl)piperazin-1-yl)-N-((4-((4-morpholino-1-(phenylthio)butan-2-yl)amino)-3-((trifluoromethyl)sulfonyl)phenyl)sulfonyl)benzamide], the IC50 was more than 1000 nM.

Regarding `CC1(C)CCC(CN2CCN(c3ccc(C(=O)NS(=O)(=O)c4ccc(NCCN5CCC6(CCOC6)CC5)c([N+](=O)[O-])c4)c(Oc4cnc5[nH]ccc5c4)c3)CC2)=C(C23CC(Cl)(C2)C3)C1` [Example 3, 2-((1H-pyrrolo[2,3-b]pyridin-5-yl)oxy)-N-((4-((2-(2-oxa-8-azaspiro[4.5]decan-8-yl)ethyl)amino)-3-nitrophenyl)sulfonyl)-4-(4-((2-(3-chlorobicyclo[1.1.1]pentan-1-yl)-4,4-dimethylcyclohex-1-en-1-yl)methyl)piperazin-1-yl)benzamide], the IC50 was 100 to 1000 nM.

With `CCC12CC(C3=C(CN4CCN(c5ccc(C(=O)NS(=O)(=O)c6ccc(NCC7(F)CCN(C)CC7)c([N+](=O)[O-])c6)c(Oc6cnc7[nH]ccc7c6)c5)CC4)CCC(C)(C)C3)(C1)C2` [Example 24, 2-(1H-pyrrolo[2,3-b]pyridin-5-yloxy)-4-(4-((2-(3-ethylbicyclo[1.1.1]pentan-1l-yl)-4,4-dimethylcyclohex-1l-enyl)methyl)piperazin-1-yl)-N-(4-((4-fluoro-1l-methylpiperidin-4-yl)methylamino)-3-nitrophenylsulfonyl)benzamide], the IC50 was less than 100 nM.

Regarding `CN(CCO)CC[C@H](CSc1ccccc1)Nc1ccc(S(=O)(=O)NC(=O)c2ccc(N3CCN(CC4=C(C56CC(C(F)(F)F)(C5)C6)CC(C)(C)CC4)CC3)cc2)cc1S(=O)(=O)C(F)(F)F` [Example 51, (R)-4-(4-((4,4-dimethyl-2-(3-(trifluoromethyl)bicyclo[1.1.1]pentan-1-yl)cyclohex-1-en-1-yl)methyl)piperazin-1-yl)-N-((4-((4-((2-hydroxyethyl)(methyl)amino)-1-(phenylthio)butan-2-yl)amino)-3-((trifluoromethyl)sulfonyl)phenyl)sulfonyl)benzamide], the IC50 fell in the range of 100 to 1000 nM.

In the case of `CC12CC(C3=C(CN4CCN(c5ccc(C(=O)NS(=O)(=O)c6ccc(NCC7(F)CCOCC7)c([N+](=O)[O-])c6)c(Oc6cnc7[nH]ccc7c6)c5)CC4)CCC4(CCC4)C3)(C1)C2` [Example 43, 2-((1H-pyrrolo[2,3-b]pyridin-5-yl)oxy)-N-((4-(((4-fluorotetrahydro-2H-pyran-4-yl)methyl)amino)-3-nitrophenyl)sulfonyl)-4-(4-((6-(3-methylbicyclo[1.1.1]pentan-1-yl)spiro[3.5]non-6-en-7-yl)methyl)piperazin-1-yl)benzamide], the IC50 lay within 100 to 1000 nM.

As to `CC1(C)CCC(CN2CCN(c3ccc(C(=O)NS(=O)(=O)c4ccc(NCC5CC6(CCOCC6)C5)c([N+](=O)[O-])c4)c(Oc4cnc5[nH]ccc5c4)c3)CC2)=C(C23CC(Cl)(C2)C3)C1` [Example 5, 2-((1H-pyrrolo[2,3-b]pyridin-5-yl)oxy)-N-((4-(((7-oxaspiro[3.5]nonan-2-yl)methyl)amino)-3-nitrophenyl)sulfonyl)-4-(4-((2-(3-chlorobicyclo[1.1.1]pentan-1-yl)-4,4-dimethylcyclohex-1-en-1-yl)methyl)piperazin-1-yl)benzamide], the IC50 was in the range of 100 to 1000 nM.

Consider `CC1(C)CCC(CN2CCN(c3ccc(C(=O)NS(=O)(=O)c4ccc(OCC5CC6(COC6)C5)c([N+](=O)[O-])c4)c(Oc4cnc5[nH]ccc5c4)c3)CC2)=C(C23CC(Cl)(C2)C3)C1` [Example 8, 2-(1H-pyrrolo[2,3-b]pyridin-5-yloxy)-N-(4-(2-oxaspiro[3.3]heptan-6-ylmethoxy)-3-nitrophenylsulfonyl)-4-(4-((2-(3-chlorobicyclo[1.1.1]pentan-1-yl)-4,4-dimethylcyclohex-1-enyl)methyl)piperazin-1-yl)benzamide], for which the IC50 fell in the range of 100 to 1000 nM.

Consider `CC1(C)CCC(CN2CCN(c3ccc(C(=O)NS(=O)(=O)c4ccc(NCCN5CCOCC5)c([N+](=O)[O-])c4)c(Oc4cnc5[nH]ccc5c4)c3)CC2)=C(C23CC(C)(C2)C3)C1` [Example 21, 2-(1H-pyrrolo[2,3-b]pyridin-5-yloxy)-4-(4-((4,4-dimethyl-2-(3-methylbicyclo[1.1.1]pentan-1-yl)cyclohex-1-enyl)methyl)piperazin-1-yl)-N-(4-(2-morpholinoethylamino)-3-nitrophenylsulfonyl)benzamide], for which the IC50 lay in the range of 100 to 1000 nM.

`CC1(C)CCC(CN2CCN(c3ccc(C(=O)NS(=O)(=O)c4ccc(OCC5CCOCC5)c([N+](=O)[O-])c4)c(Oc4cnc5[nH]ccc5c4)c3)CC2)=C(C23CC(C)(C2)C3)C1` [Example 22, 2-(1H-pyrrolo[2,3-b]pyridin-5-yloxy)-4-(4-((4,4-dimethyl-2-(3-methylbicyclo[1.1.1]pentan-1-yl)cyclohex-1-enyl)methyl)piperazin-1-yl)-N-(3-nitro-4-((tetrahydro-2H-pyran-4-yl)methoxy)phenylsulfonyl)benzamide]: the IC50 was less than 100 nM.

As for `CCC12CC(C3=C(CN4CCN(c5ccc(C(=O)NS(=O)(=O)c6ccc(N[C@H](CCN7CCOCC7)CSc7ccccc7)c(S(=O)(=O)C(F)(F)F)c6)cc5)CC4)CCC(C)(C)C3)(C1)C2` [Example 53, (R)-4-(4-((2-(3-Ethylbicyclo[1.1.1]pentan-1-yl)-4,4-dimethylcyclohex-1-en-1-yl)methyl)piperazin-1-yl)-N-((4-((4-morpholino-1-(phenylthio)butan-2-yl)amino)-3-((trifluoromethyl)sulfonyl)phenyl)sulfonyl)benzamide], the IC50 was more than 1000 nM.

In the case of `O=C(NS(=O)(=O)c1ccc(NCC2CCOCC2)c([N+](=O)[O-])c1)c1ccc(N2CCN(CC3=C(C45CC(C(F)F)(C4)C5)CC4(CCC4)CC3)CC2)cc1Oc1cnc2[nH]ccc2c1` [Example 42, 2-((1H-pyrrolo[2,3-b]pyridin-5-yl)oxy)-4-(4-((6-(3-(difluoromethyl)bicyclo[1.1.1]pentan-1-yl)spiro[3.5]non-6-en-7-yl)methyl)piperazin-1-yl)-N-((3-nitro-4-(((tetrahydro-2H-pyran-4-yl)methyl)amino)phenyl)sulfonyl)benzamide], the IC50 is less than 100 nM.

Turning to `CC1(C)CCC(CN2CCN(c3ccc(C(=O)NS(=O)(=O)c4ccc(OC5COC6(CC6)C5)c([N+](=O)[O-])c4)c(Oc4cnc5[nH]ccc5c4)c3)CC2)=C(C23CC(Cl)(C2)C3)C1` (stereo not shown) [Example 6, 2-((1H-pyrrolo[2,3-b]pyridin-5-yl)oxy)-N-((4-((4-oxaspiro[2.4]heptan-6-yl)oxy)-3-nitrophenyl)sulfonyl)-4-(4-((2-(3-chlorobicyclo[1.1.1]pentan-1-yl)-4,4-dimethylcyclohex-1-en-1-yl)methyl)piperazin-1-yl)benzamide], the IC50 is more than 1000 nM.

Consider `CC1(C)CCC(CN2CCN(c3ccc(C(=O)NS(=O)(=O)c4ccc(NCC5CC6(COC6)C5)c([N+](=O)[O-])c4)c(Oc4cnc5[nH]ccc5c4)c3)CC2)=C(C23CC(Cl)(C2)C3)C1` [Example 2, 2-(1H-pyrrolo[2,3-b]pyridin-5-yl-oxy)-N-(4-(2-oxaspiro[3.3]heptan-6-yl-methylamino)-3-nitrophenylsulfonyl)-4-(4-((2-(3-chlorobicyclo[1.1.1]pentan-1-yl)-4,4-dimethylcyclohex-1en-yl)methyl)piperazin-1-yl)benzamide], for which the IC50 is less than 100 nM.

In the case of `CC1(C)CCC(C23CC(Cl)(C2)C3)=C(CN2CCN(c3ccc(C(=O)NS(=O)(=O)c4ccc(N[C@H](CCN5CCOCC5)CSc5ccccc5)c(S(=O)(=O)C(F)(F)F)c4)cc3)CC2)C1` [Example 45, (R)-4-(4-((2-(3-Chlorobicyclo[1.1.1]pentan-1-yl)-5,5-dimethylcyclohex-1-en-1-yl)methyl)piperazin-1-yl)-N-((4-((4-morpholino-1-(phenylthio)butan-2-yl)amino)-3-((trifluoromethyl)sulfonyl)phenyl)sulfonyl)benzamide], the IC50 is more than 1000 nM.

For `CC1(C)CCC(CN2CCN(c3ccc(C(=O)NS(=O)(=O)c4ccc(OCCN5CC6(COC6)C5)c([N+](=O)[O-])c4)c(Oc4cnc5[nH]ccc5c4)c3)CC2)=C(C23CC(Cl)(C2)C3)C1` [Example 7, 2-(1H-pyrrolo[2,3-b]pyridin-5-yloxy)-N-(4-(2-(2-oxa-6-azaspiro[3.3]heptan-6-yl)ethoxy)-3-nitrophenylsulfonyl)-4-(4-((2-(3-chlorobicyclo[0.1.1]pentan-1-yl)-4,4-dimethylcyclohex-1-enyl)methyl)piperazin-1-yl)benzamide], the IC50 was more than 1000 nM.

Take `CC1(C)CCC(CN2CCN(c3ccc(C(=O)NS(=O)(=O)c4ccc(N[C@H](CCN5CCOCC5)CSc5ccccc5)c(S(=O)(=O)C(F)(F)F)c4)cc3)CC2)=C(C23CC(C)(C2)C3)C1` [Example 52, (R)-4-(4-((4,4-Dimethyl-2-(3-methylbicyclo[1.1.1]pentan-1-yl)cyclohex-1-en-1-yl)methyl)piperazin-1-yl)-N-((4-((4-morpholino-1-(phenylthio)butan-2-yl)amino)-3-((trifluoromethyl)sulfonyl)phenyl)sulfonyl)benzamide]: the IC50 was in the range of 100 to 1000 nM.

The values above are taken from patent US11344546B2, “Benzamide compounds” (Recurium IP Holdings, LLC, priority 2018, dated 2022).
